# Tests used:
# [1] = Fluorescent solution phase glucose responsive assay (pH 7.4, 298 K); conditions: Ex 560/Emmax 610 nm, medium B (10 mM PBS)
# Procedure, shortened: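 Glucose binding molecule and fluorescent inhibitor molecule mixed in defined media at pH 7.4 and 298 K unless stated; baseline emission recorded, then D-glucose added stepwise to set final concentrations, e.g. 10 mM. After equilibration, percent change in emission at Emmax versus baseline recorded.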
# [2] = Fluorescence lifetime glucose responsive assay (10 mM PBS, pH 7.4, 298 K); conditions: FIM 10 uM, Ex 450 nm
# [3] = Fluorescent hydrogel phase glucose responsive assay (10 mM PBS, pH 7.4, 310 K); conditions: 20 mM D-glucose, GBM2 10 uM, FIM 1 uM
# Description: The fluorescence spectrum of the corresponding hydrogel, already swollen in 200 μL of 10 mM PBS, in a well plate was recorded by exciting at the designated excitation frequency and monitoring at the typical emission maximum (Emmax). The PBS top solution was removed either by micropipette or by decanting onto an absorbent material. A 200 μL solution of D-glucose (in 10 mM PBS) at the required concentration was added to each hydrogel in the well plate and the system allowed to reach equilibrium. The emission spectra for each well were collected after this and compared to the original baseline emission, monitoring at the typical emission maximum (Emmax), and the percentage increase or decrease recorded. The change in emission was recorded for each hydrogel in the well plate (up to 96 individual hydrogel sensors) or an average of all wells was used. The hydrogel bound assays were then investigated for reproducibility by cycling with solutions of PBS or D-glucose. This was achieved by removal of the previous top solution (e.g. D-glucose) by micropipette or decanting onto an absorbent material and replacing with another solution (e.g. 10 mM PBS). […] Emission spectra acquired using a Clariostar plus plate reader.
# (§1) Hydroxyethylmethacrylate (2.85 g), TEGDMA (0.15 g), VAZO-44 (0.12 mg), ethylene glycol (1.06 g) and water (1.33 g) were added to a glass vial and vortexed/sonicated until a homogeneous solution. Concentrated aliquots (<50 μL) of the appropriate GBM and FIM from pre-made stock solutions were added to give the required final concentrations of GBM and FIM (i.e. 50 μL of GBM stock solution at 1 mM gives a final GBM concentration of 10 μM in the pre-gel solution). A 50 μL aliquot of this GBM and FIM containing pre-gel solution was pipetted into each well of a transparent flat-bottomed polystyrene 96 well plate. 100 μL of n-butanol was layered on top of the pre-gel solution in each well plate and each well plate covered with a loose transparent well plate lid. The well plate was then placed in a nitrogen flushed desiccator, which was then placed into a pre-heated oven at 45° C. for 4 hours. The well plates were then removed from the oven, allowed to cool to RT and the top solution removed by decanting onto an absorbent material. The hydrogels were then washed and swelled by submerging in one litre of pure water or 10 mM PBS for 24 hours. Each well within the well plate containing hydrogel bound assay was then washed with D-glucose (50 mM) and then 10 mM PBS multiple times until the observed fluorescence emission stabilised to give a baseline emission value in 10 mM PBS. These hydrogels were then used for determining assay performance and reversibility studies.
# as §1, with “(1.95” for “(2.85”, “PEGDA (0.57” for “TEGDMA (0.15”, “(0.04” for “(0.12”, “200 mM methyl-p-D-glucopyranoside (aqueous, 1.39” for “water (1.33”, “FIM.” for “FIM (i.e. 50 μL of GBM stock solution at 1 mM gives a final GBM concentration of 10 μM in the pre-gel solution).”, “hours.” for “hours. Each well within the well plate containing hydrogel bound assay was then washed with D-glucose (50 mM) and then 10 mM PBS multiple times until the observed fluorescence emission stabilised to give a baseline emission value in 10 mM PBS. These hydrogels were then used for determining assay performance and reversibility studies.”
# [4] = Ex 470/Emmax 530 nm, hydrogel A (HEMA/TEGDMA)
# [5] = Ex 470/Emmax 530 nm, hydrogel C (polyacrylamide/bis-acrylamide)
smiles,measurement,setting,value
CN1c2cc3c(cc2C(CS(=O)(=O)[O-])=CC1(C)C)C(c1ccc(C(=O)NCc2cn(CCOCCOCCOCCNC(=O)[C@H](Cc4cn(CCOCCOCCOCCOc5ccc(CCO[C@@H]6O[C@H](CO)[C@@H](O)[C@H](O)[C@H]6O)cc5)nn4)NC(=O)OC(C)(C)C)nn2)cc1C(=O)[O-])=c1cc2c(cc1O3)=[N+](C)C(C)(C)C=C2CS(=O)(=O)[O-].[Na+].[Na+] [FIM10],Change in Emmax for FIM at a particular D-glucose concentration,"[1]; 5 mM D-glucose, GBM42 20 uM, FIM 5 uM",65%
same,Change in Emmax for FIM at a particular D-glucose concentration,"[1]; 10 mM D-glucose, GBM42 20 uM, FIM 5 uM",85%
same,Change in Emmax for FIM at a particular D-glucose concentration,"[1]; 20 mM D-glucose, GBM42 20 uM, FIM 5 uM",105%
same,Change in Emmax for FIM at a particular D-glucose concentration,"[1]; 40 mM D-glucose, GBM40 5 uM, FIM 10 uM",−75%
same,Change in Emmax for FIM at a particular D-glucose concentration,"[1]; 40 mM D-glucose, GBM42 20 uM, FIM 5 uM",110%
same,Fluorescence lifetime component τ1 for FIM and GBM at a particular glucose concentration,"[2]; 20 mM glucose, GBM40 5 uM",580 ns
same,Lifetime component τ1 of FIM only,[2],575 ns
same,Lifetime component τ1 of FIM after GBM addition,[2]; GBM40 5 uM,620 ns
C=CC(=O)NCCOCCOCCOCCOCCOCCOCCC(=O)NCCCC[C@@H](C(=O)Nc1ccc(CCO[C@@H]2O[C@H](CO)[C@@H](O)[C@H](O)[C@H]2O)cc1)n1cc(CNC(=O)c2ccc(C(=O)O)c(-c3c4cc(C)c(=NCC)cc-4oc4cc(NCC)c(C)cc34)c2)nn1 [FIM16],Change in Emmax for FIM at a particular D-glucose concentration,"[3]; Ex 515/Emmax 550 nm, hydrogel A (HEMA/TEGDMA)",45%
same,Change in Emmax for FIM at a particular D-glucose concentration,"[3]; Ex 515/Emmax 550 nm, hydrogel C (polyacrylamide/bis-acrylamide)",50%
C=CC(=O)NC(Cc1cn(CCOCCOc2ccc(CCO[C@@H]3O[C@H](CO)[C@@H](O)[C@H](O)[C@H]3O)cc2)nn1)C(=O)Nc1ccc2c(c1)C(=O)OC21c2ccc(O)cc2Oc2cc(O)ccc21 (some centres unmarked) [FIM21],Change in Emmax for FIM at a particular D-glucose concentration,[3]; [4],0%
C=CC(=O)NCCCC[C@@H](C(=O)Nc1ccc2c(c1)C(=O)OC21c2ccc(O)cc2Oc2cc(O)ccc21)n1cc(-c2ccc(CCO[C@@H]3O[C@H](CO)[C@@H](O)[C@H](O)[C@H]3O)cc2)nn1 [FIM22],Change in Emmax for FIM at a particular D-glucose concentration,[3]; [4],10%
same,Change in Emmax for FIM at a particular D-glucose concentration,[3]; [5],15%
C=CC(=O)NCCOCCOCCOCCOCCOCCOCCC(=O)NCCCC[C@@H](C(=O)Nc1ccc(CCO[C@@H]2O[C@H](CO)[C@@H](O)[C@H](O)[C@H]2O)cc1)n1cc(CNC(=O)c2ccc3c(c2)C(=O)OC32c3ccc(O)cc3Oc3cc(O)ccc32)nn1 [FIM23],Change in Emmax for FIM at a particular D-glucose concentration,[3]; [4],10%
same,Change in Emmax for FIM at a particular D-glucose concentration,[3]; [5],15%
C=CC(=O)NCCOCCOCCOCCOCCOCCOCCC(=O)NCCCC[C@@H](C(=O)Nc1ccc2c(c1)C(=O)OC21c2ccc(O)cc2Oc2cc(O)ccc21)n1cc(-c2ccc(CCO[C@@H]3O[C@H](CO)[C@@H](O)[C@H](O)[C@H]3O)cc2)nn1 [FIM24],Change in Emmax for FIM at a particular D-glucose concentration,[3]; [4],8%
C=CC(=O)NCCOCCOCCOCCOCCOCCOCCC(=O)NCCCC[C@@H](C(=O)Nc1ccc2c(c1)C(=O)OC21c2ccc(O)cc2Oc2cc(O)ccc21)n1cc(-c2ccc(CCO[C@@H]3O[C@H](C(=O)O)[C@@H](O)[C@H](O)[C@H]3O)cc2)nn1 [FIM25],Change in Emmax for FIM at a particular D-glucose concentration,[3]; [4],12%

# — patent publication US20250172566A1, “SACCHARIDE SENSING SYSTEMS” (CARBOMETRICS LIMITED, priority 2022, published 2025)
